Source: the supplement of paper PMC13380429

Experiments:
[1] = system: A549-ACE2 infected with SARS-CoV-2; test: cell count relative to DMSO; higher = less toxic; settings: 24 h
[2] = system: Caco-2; test: cell viability relative to DMSO; higher = less toxic; settings: 72 h
[3] = system: Calu-3; test: as above; settings: 72 h
[4] = system: HepG2; test: as above; settings: 72 h
[5] = system: U2OS; test: as above; settings: 72 h
[6] = system: Vero E6; test: as above; settings: 72 h
[7] = system: A549-ACE2 infected with SARS-CoV-2; test: SARS-CoV-2 infection rate relative to DMSO; higher = more infection; settings: 24 h
[8] = system: A549-ACE2; test: drug-induced phospholipidosis relative to tamoxifen; higher = more phospholipidosis
[9] = system: A549-ACE2 infected with SARS-CoV-2; test: morphology score (similarity to uninfected cells); higher = more like uninfected cells; settings: 24 h
[10] = system: Caco-2; test: relative viability EC50 (midpoint between 100% and the lowest measured viability); higher = less toxic; settings: 72 h
[11] = system: Calu-3; test: as above; settings: 72 h
[12] = system: Vero E6; test: as above; settings: 72 h
[13] = system: Caco-2; test: drug sensitivity score (DSS) for viability; higher = more toxic; extreme values may be limits of the assay; settings: 72 h
[14] = system: Calu-3; test: as above; settings: 72 h
[15] = system: HepG2; test: as above; settings: 72 h
[16] = system: U2OS; test: as above; settings: 72 h
[17] = system: Vero E6; test: as above; settings: 72 h
[18] = system: HepG2; test: relative viability EC50 (midpoint between 100% and the lowest measured viability); higher = less toxic; settings: 72 h
[19] = system: U2OS; test: as above; settings: 72 h

CN1CCN(S(=O)(=O)c2ccc(-c3cnc(N)c(C(=O)Nc4cccnc4)n3)cc2)CC1 [AZD2858]
Settings	SARS-CoV-2 infection rate, [7] [%]	cell count, [1] [%]	cell viability, [2] [%]	cell viability, [3] [%]	cell viability, [4] [%]	cell viability, [5] [%]	cell viability, [6] [%]	morphology score, [9]
1 nM	–	–	96.7	98.2	104	92.4	98.5	–
10 nM	–	–	96.7	102	104	99.5	93.1	–
0.1 µM	103	100	–	–	–	–	–	-0.23
100 nM	–	–	102	99.4	101	96.6	100	–
0.3 µM	100	96	–	–	–	–	–	-0.27
1 µM	86	107	–	–	–	–	–	-0.14
1000 nM	–	–	108	114	97.3	100	102	–
3 µM	95	97	–	–	–	–	–	-0.15
10000 nM	–	–	82.3	85.7	70.4	73.8	78.8	–

drug-induced phospholipidosis [%], [8]
Settings	0.3 µM	0.833333 µM	3.33333 µM	6.66667 µM	10 µM	30 µM
24 h	-4.95	-12.2	-21.2	-22.8	-21.3	-18.1
48 h	1.83	-4.03	-14.2	–	–	–
72 h	1.77	-0.315	-6.78	–	–	–

Settings	drug sensitivity score	relative viability EC50 [µM]
[10]	–	> 10
[11]	–	> 10
[12]	–	> 10
[13]	0.2	–
[14]	0	–
[15]	1.7	–
[16]	1	–
[17]	0.6	–

Cc1cc(C(C)(C)C)c(O)c(C)c1CC1=NCCN1 [oxymetazoline]
cell viability [%]
Settings	[2]	[3]	[4]	[5]	[6]
1 nM	97.6	92.1	103	100	100
10 nM	93.7	92.3	87.9	99.5	106
100 nM	80.4	94.5	104	98.9	102
1000 nM	96.6	101	84	100	95.7
10000 nM	83.6	107	88	96.4	98.7

Settings	drug sensitivity score	relative viability EC50 [µM]
[10]	–	> 10
[11]	–	> 10
[12]	–	> 10
[13]	0.9	–
[14]	0	–
[15]	1.5	–
[16]	0	–
[17]	0	–
[18]	–	> 10
[19]	–	> 10

CCC[C@H](N[C@@H](C)C(=O)N1[C@H](C(=O)O)C[C@@H]2CCCC[C@@H]21)C(=O)O [perindoprilat]
cell viability [%]
Settings	[2]	[3]	[4]	[5]	[6]
1 nM	103	100	104	95.2	104
10 nM	93.9	96.1	96.3	98.5	104
100 nM	107	90.6	103	94.6	100
1000 nM	96.8	103	105	105	95.3
10000 nM	138	93.2	96.5	92.2	97.8

Settings	drug sensitivity score	relative viability EC50 [µM]
[10]	–	> 10
[11]	–	> 10
[12]	–	> 10
[13]	0	–
[14]	0	–
[15]	0	–
[16]	0	–
[17]	0	–
[18]	–	> 10
[19]	–	> 10

CC(C)NCC(O)c1ccc2ccccc2c1 (configuration not stated) [pronethalol]
cell viability [%]
Settings	[2]	[3]	[4]	[5]	[6]
1 nM	89.8	91.1	105	98.5	112
10 nM	97.7	99	91.6	105	106
100 nM	87.4	101	104	97.7	100
1000 nM	90.8	93.8	87	102	94.3
10000 nM	93.1	93.8	106	95.5	98.7

Settings	drug sensitivity score	relative viability EC50 [µM]
[10]	–	> 10
[11]	–	> 10
[12]	–	> 10
[13]	0	–
[14]	0	–
[15]	0	–
[16]	0	–
[17]	0	–
[18]	–	> 10
[19]	–	> 10

Cc1oc(=O)oc1CN1CCN(c2cc3c(cc2F)c(=O)c(C(=O)O)c2n3C(C)S2)CC1 (configuration not stated) [prulifloxacin]
cell viability [%]
Settings	[2]	[3]	[4]	[5]	[6]
1 nM	94.8	104	107	95.8	102
10 nM	91.6	95.8	112	99.8	111
100 nM	120	99.4	110	100	115
1000 nM	103	96.2	106	95.7	94.5
10000 nM	97.8	97.3	97.2	100	97.3

Settings	drug sensitivity score	relative viability EC50 [µM]
[10]	–	> 10
[11]	–	> 10
[12]	–	> 10
[13]	0	–
[14]	0	–
[15]	0	–
[16]	0	–
[17]	0	–
[18]	–	> 10
[19]	–	> 10

CC(C)[C@H](CO)Nc1nc(Nc2ccc(C(=O)O)c(Cl)c2)c2ncn(C(C)C)c2n1 [purvalanol-B]
cell viability [%]
Settings	[2]	[3]	[4]	[5]	[6]
1 nM	89.4	111	93.5	97.1	94
10 nM	91.9	101	99.2	96.1	96.4
100 nM	103	106	99.1	101	95.9
1000 nM	96.8	114	98.4	103	94.9
10000 nM	98.3	95.5	98.9	107	103

Settings	drug sensitivity score	relative viability EC50 [µM]
[10]	–	> 10
[11]	–	> 10
[12]	–	> 10
[13]	0	–
[14]	0	–
[15]	0	–
[16]	0	–
[17]	0	–
[18]	–	> 10
[19]	–	> 10
